This passage reports IC50 results from US7132435B2, “Compounds” (Pfizer Inc., priority 2003, dated 2006).

In the assay the test system is human peripheral blood mononuclear cells. Kind of assay: TNFα release from LPS-stimulated human peripheral blood mononuclear cells (TNFα screen). As to conditions: PBMC, 18 hours incubation, TNFα in supernatant by ELISA. Format: cell-based. On the procedure: Venous blood is collected from healthy volunteers and the mononuclear cells purified by centrifugation through Histopaque (Ficoll) cushions. TNFα production from these cells is stimulated by addition of lipopolysaccharide. After 18 hours incubation in the presence of LPS, the cell supernatant is removed and the concentration of TNFα in the supernatant determined by ELISA. Addition of PDE4 inhibitors reduces the amount of TNFα produced. An IC50 is determined which is equal to the concentration of compound that gives 50% inhibition of TNFα production as compared to the LPS stimulated control wells.

As to `Cc1ccc(C(=O)N[C@H]2CC[C@@H](NC(=O)c3cc(F)cnc3Oc3ccc4c(c3)SCC4)CC2)c(O)c1` [Example 3, Syn-2-(2,3-dihydro-benzo[b]thiophen-6-yloxy)-5-fluoro-N-[4-(2-hydroxy-4-methyl-benzoylamino)-cyclohexyl]-nicotinamide], the IC50 (usually the midpoint of a concentration-inhibition curve) was 0.8 nM. In other words, the sub-nanomolar range. To `O=C(N[C@H]1CC[C@@H](NC(=O)c2cccn3ccnc23)CC1)c1cc(F)cnc1Oc1ccc2c(c1)SCC2` [Example 1, Syn-imidazo[1,2-a]pyridine-8-carboxylic acid (4-{[2-(2,3-dihydro-benzo[b]thiophen-6-yloxy)-5-fluoro-pyridine-3-carbonyl]-amino}-cyclohexyl)-amide] belongs 0.6 nM.
